Relative viability data for one cell line are collected here from the supplement of paper PMC10307832.

What all share (experiment): relative viability (nuclei count vs DMSO), 5 days (fraction); higher = more cells survive
Compound in the assay “VE-821 + Trametinib”: CS(=O)(=O)c1ccc(-c2cnc(N)c(C(=O)Nc3ccccc3)n2)cc1 [VE-821] + CC(=O)Nc1cccc(-n2c(=O)n(C3CC3)c(=O)c3c(Nc4ccc(I)cc4F)n(C)c(=O)c(C)c32)c1 [Trametinib] (partner 0.02 µM)
The gist of the method:
(§1)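 Lung cancer cell lines in 1536-well plates were dosed by pin tool the day after seeding, either with one drug alone or with a fixed anchor-drug dose plus five library-drug doses (not always all listed) in √10 steps. After 5 days, cells were fixed and their nuclei stained in one step (final 0.05% Triton X-100, 1% formaldehyde, 1 ug/ml Hoechst), then counted on 4× images. Relative viability is the nuclei count in treated wells divided by that in vehicle wells. Values are medians of duplicate plates.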

Compound in the assay “VE-821 + Foretinib”: CS(=O)(=O)c1ccc(-c2cnc(N)c(C(=O)Nc3ccccc3)n2)cc1 [VE-821] + COc1cc2c(Oc3ccc(NC(=O)C4(C(=O)Nc5ccc(F)cc5)CC4)cc3F)ccnc2cc1OCCCN1CCOCC1 [Foretinib] (partner 0.25 µM)
In short, it runs like this:
as §1

Compound in the assay “VE-821 + Vorinostat”: CS(=O)(=O)c1ccc(-c2cnc(N)c(C(=O)Nc3ccccc3)n2)cc1 [VE-821] + O=C(CCCCCCC(=O)Nc1ccccc1)NO [Vorinostat] (partner 1 µM)
In short, it runs like this:
as §1

Compound in the assay “Ruxolitinib + Linsitinib”: N#CC[C@H](C1CCCC1)n1cc(-c2ncnc3[nH]ccc23)cn1 [Ruxolitinib] + C[C@]1(O)C[C@@H](c2nc(-c3ccc4ccc(-c5ccccc5)nc4c3)c3c(N)nccn32)C1 [Linsitinib] (partner 1 µM)
In short, it runs like this: as §1

Regarding UMC-11, the relative viability was 0.738 with VE-821 + Trametinib (first compound 0.08 µM); 0.596 with VE-821 + Trametinib (first compound 0.253 µM); 0.516 in the assay with VE-821 + Trametinib (first compound 0.8 µM); 0.798 with VE-821 + Trametinib (first compound 2.53 µM); 0.38 with VE-821 + Trametinib (first compound 8 µM); 1.09 with VE-821 + Foretinib (first compound 0.08 µM). The relative viability was 1.01 with VE-821 + Foretinib (first compound 0.253 µM); 1.08 with VE-821 + Foretinib (first compound 0.8 µM); 1.06 with VE-821 + Foretinib (first compound 2.53 µM); 0.553 with VE-821 + Foretinib (first compound 8 µM); 0.335 with VE-821 + Vorinostat (first compound 0.08 µM); 0.373 with VE-821 + Vorinostat (first compound 0.253 µM). Further, the relative viability in the assay with VE-821 + Vorinostat (first compound 0.8 µM) is 0.386; with VE-821 + Vorinostat (first compound 2.53 µM), 0.297; with VE-821 + Vorinostat (first compound 8 µM) it was 0.202; with Ruxolitinib + Linsitinib (first compound 0.08 µM), 1.03; with Ruxolitinib + Linsitinib (first compound 0.253 µM), 1.08; with Ruxolitinib + Linsitinib (first compound 0.8 µM) it was 1.08. Further, the relative viability with Ruxolitinib + Linsitinib (first compound 2.53 µM) came to 1.11; with Ruxolitinib + Linsitinib (first compound 8 µM) it was 0.96.
